According to ChEMBL document CHEMBL1201862, “PubChem BioAssay data set” (2004):
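Following 48 hours of exposure in 96-well plates, responses at five concentrations were used to interpolate endpoints linearly. GI50 is the concentration that inhibits growth by half.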 Activity calls are given as the source filed them. No stated cut-off is given here; in the data, active = GI50 up to about 1.1 µM and inactive = higher.

How the values were obtained:
Assay in all cases: NCI tumour cell line growth inhibition, 48 h
CCRF-CEM = tested on: CCRF-CEM
NCI-H226 = tested on: NCI-H226
NCI-H460 = tested on: NCI-H460
RXF 393 = tested on: RXF 393
HOP-18 = tested on: HOP-18
SF-539 = tested on: SF-539
COLO 205 = tested on: COLO 205
M19-MEL = tested on: M19-MEL
NCI-H522 = tested on: NCI-H522
HCT-15 = tested on: HCT-15
CAKI-1 = tested on: CAKI-1
OVCAR-5 = tested on: OVCAR-5
ACHN = tested on: ACHN
A549 = tested on: A549
SN12C = tested on: SN12C
XF498 = tested on: XF498
OVCAR-8 = tested on: OVCAR-8
HT-29 = tested on: HT-29
SK-MEL-28 = tested on: SK-MEL-28
RXF 631 = tested on: RXF 631
DMS-273 = tested on: DMS-273
LOX IMVI = tested on: LOX IMVI
MOLT-4 = tested on: MOLT-4
UACC-62 = tested on: UACC-62
Malme-3M = tested on: Malme-3M
DLD-1 = tested on: DLD-1
K562 = tested on: K562
UACC-257 = tested on: UACC-257
DMS-114 = tested on: DMS-114
TK-10 = tested on: TK-10
KM12 = tested on: KM12
786-0 = tested on: 786-0
OVCAR-4 = tested on: OVCAR-4
A498 = tested on: A498
SK-MEL-5 = tested on: SK-MEL-5
HOP-92 = tested on: HOP-92
M14 = tested on: M14
U-251 = tested on: U-251
RPMI-8226 = tested on: RPMI-8226
OVCAR-3 = tested on: OVCAR-3
EKVX = tested on: EKVX
SF-295 = tested on: SF-295
HOP-62 = tested on: HOP-62
HCT-116 = tested on: HCT-116
UO-31 = tested on: UO-31
LXFL 529 = tested on: LXFL 529
SNB-75 = tested on: SNB-75
HL-60 = tested on: HL-60
SNB-19 = tested on: SNB-19
SW-620 = tested on: SW-620
IGROV-1 = tested on: IGROV-1
SNB-78 = tested on: SNB-78
HCC 2998 = tested on: HCC 2998
SF-268 = tested on: SF-268
KM-20L2 = tested on: KM-20L2
SK-MEL-2 = tested on: SK-MEL-2
NCI-H23 = tested on: NCI-H23

## COc1ccccc1/C=C\c1cc(OC)c(OC)c(OC)c1
CCRF-CEM
  GI50: 16.7 µM (inactive)
NCI-H226
  GI50: 19.2 µM (inactive)
NCI-H460
  GI50: 6.85 µM (inactive)
RXF 393
  GI50: 11 µM (inactive)
HOP-18
  GI50: > 100 µM (inactive)
SF-539
  GI50: 6.4 µM (inactive)
COLO 205
  GI50: 4.46 µM (inactive)
M19-MEL
  GI50: 9.1 µM (inactive)
NCI-H522
  GI50: 6.14 µM (inactive)
HCT-15
  GI50: 4.2 µM
CAKI-1
  GI50: 8.22 µM (inactive)
OVCAR-5
  GI50: 34 µM (inactive)
ACHN
  GI50: 33.8 µM (inactive)
A549
  GI50: 6.08 µM (inactive)
SN12C
  GI50: 29.3 µM (inactive)
XF498
  GI50: 9.64 µM (inactive)
OVCAR-8
  GI50: 24.5 µM (inactive)
HT-29
  GI50: 3.97 µM (inactive)
SK-MEL-28
  GI50: 33.9 µM (inactive)
RXF 631
  GI50: 15.8 µM (inactive)
DMS-273
  GI50: 4.62 µM (inactive)
LOX IMVI
  GI50: 9.59 µM (inactive)
MOLT-4
  GI50: 4.31 µM (inactive)
UACC-62
  GI50: 5.9 µM (inactive)
Malme-3M
  GI50: 16.5 µM (inactive)
DLD-1
  GI50: 23.2 µM (inactive)
K562
  GI50: 4.06 µM (inactive)
UACC-257
  GI50: 31.6 µM (inactive)
DMS-114
  GI50: 6.41 µM (inactive)
TK-10
  GI50: 43.6 µM (inactive)
KM12
  GI50: 6.89 µM (inactive)
786-0
  GI50: 31.2 µM (inactive)
OVCAR-4
  GI50: 25.8 µM (inactive)
A498
  GI50: 7.64 µM (inactive)
SK-MEL-5
  GI50: 4.33 µM (inactive)
HOP-92
  GI50: 8.65 µM (inactive)
M14
  GI50: 5.85 µM (inactive)
U-251
  GI50: 6.03 µM (inactive)
RPMI-8226
  GI50: 5.01 µM (inactive)
OVCAR-3
  GI50: 10.2 µM (inactive)
EKVX
  GI50: 15.2 µM (inactive)
SF-295
  GI50: 4.83 µM (inactive)
HOP-62
  GI50: 5.18 µM (inactive)
HCT-116
  GI50: 9.23 µM (inactive)
UO-31
  GI50: 16.1 µM (inactive)
LXFL 529
  GI50: 12.9 µM (inactive)
SNB-75
  GI50: 10.7 µM (inactive)
HL-60
  GI50: 3.22 µM (inactive)
SNB-19
  GI50: 39.4 µM (inactive)
SW-620
  GI50: 3.85 µM (inactive)
IGROV-1
  GI50: 6.41 µM (inactive)
SNB-78
  GI50: 28.3 µM (inactive)

## c1ccc(/N=C2\c3ccccc3C3=NCCCN32)cc1
CCRF-CEM
  GI50: 61.1 µM (inactive)
NCI-H226
  GI50: 27.2 µM (inactive)
NCI-H460
  GI50: 55.1 µM (inactive)
RXF 393
  GI50: 34.7 µM (inactive)
HCC 2998
  GI50: 49.7 µM (inactive)
SF-539
  GI50: 49.3 µM (inactive)
COLO 205
  GI50: 62.1 µM (inactive)
M19-MEL
  GI50: 53.6 µM (inactive)
NCI-H522
  GI50: 18.1 µM (inactive)
HCT-15
  GI50: 35.6 µM
CAKI-1
  GI50: 27.1 µM (inactive)
OVCAR-5
  GI50: > 100 µM (inactive)
ACHN
  GI50: 29.4 µM (inactive)
A549
  GI50: 42.3 µM (inactive)
SN12C
  GI50: > 100 µM (inactive)
XF498
  GI50: 85.5 µM (inactive)
SF-268
  GI50: 81.5 µM (inactive)
OVCAR-8
  GI50: > 100 µM (inactive)
HT-29
  GI50: 31.1 µM (inactive)
SK-MEL-28
  GI50: > 100 µM (inactive)
RXF 631
  GI50: 85.5 µM (inactive)
DMS-273
  GI50: 36.3 µM (inactive)
LOX IMVI
  GI50: 47.1 µM (inactive)
MOLT-4
  GI50: 39.4 µM (inactive)
UACC-62
  GI50: 61.5 µM (inactive)
Malme-3M
  GI50: 62.8 µM (inactive)
DLD-1
  GI50: 39.2 µM (inactive)
K562
  GI50: 29.2 µM (inactive)
UACC-257
  GI50: 40.4 µM (inactive)
DMS-114
  GI50: 28.2 µM (inactive)
TK-10
  GI50: 50 µM (inactive)
KM12
  GI50: 38.7 µM (inactive)
786-0
  GI50: 90.4 µM (inactive)
OVCAR-4
  GI50: 42.2 µM (inactive)
A498
  GI50: 43.2 µM (inactive)
SK-MEL-5
  GI50: 28 µM (inactive)
HOP-92
  GI50: 13.8 µM (inactive)
M14
  GI50: > 100 µM (inactive)
KM-20L2
  GI50: 59.2 µM (inactive)
U-251
  GI50: > 100 µM (inactive)
RPMI-8226
  GI50: 30.5 µM (inactive)
OVCAR-3
  GI50: 75 µM (inactive)
EKVX
  GI50: 30.6 µM (inactive)
SF-295
  GI50: 92 µM (inactive)
HOP-62
  GI50: 67.6 µM (inactive)
HCT-116
  GI50: 40.2 µM (inactive)
SK-MEL-2
  GI50: 86.5 µM (inactive)
UO-31
  GI50: 29.2 µM (inactive)
LXFL 529
  GI50: 43.3 µM (inactive)
SNB-75
  GI50: 50.9 µM (inactive)
SNB-19
  GI50: 85.9 µM (inactive)
NCI-H23
  GI50: 41.5 µM (inactive)
SW-620
  GI50: 43.9 µM (inactive)
IGROV-1
  GI50: 59.8 µM (inactive)
SNB-78
  GI50: > 100 µM (inactive)
